pIC50: −log10 of the molar value.
Columns and labels:
Type in all cases: functional, cell-based
HuTu80 = experiment: Inhibition of cell growth against HuTu 80 human gastrointestinal adenocarcinoma cell lines in vitro
WiDr = experiment: Inhibition of cell growth against WIDR human gastrointestinal adenocarcinoma cell lines in vitro
HT-29 = experiment: Inhibition of cell growth against HT-29 human gastrointestinal adenocarcinoma cell lines in vitro
SW480 = experiment: Inhibition of cell growth against SW480 human gastrointestinal adenocarcinoma cell lines in vitro

pIC50 (HT-29) | pIC50 (SW480) | SMILES | pIC50 (HuTu80) | pIC50 (WiDr)
7.22 | 7.25 | Cc1c(NCc2ccc(C(=O)NC(CCC(=O)O)C(=O)O)cc2)ccc2nc(N)nc(N)c12 (stereo unspecified) | 7.33 | 7.15
5.77 | 5.35 | Nc1nc(=O)c2cc(NCc3ccc(C(=O)NC(CCC(=O)O)C(=O)O)cc3)ccc2[nH]1 (stereo unspecified) | 5.35 | 5.38
7.60 | 7.70 | Nc1nc(N)c2c(Cl)c(NCc3ccc(C(=O)NC(CCC(=O)O)C(=O)O)cc3)ccc2n1 (stereo unspecified) | 7.66 | 7.62

Second part, the compound before the results:

SMILES | pIC50 (HT-29) | pIC50 (SW480) | pIC50 (HuTu80) | pIC50 (WiDr)
CN(Cc1cnc2nc(N)nc(N)c2n1)c1ccc(C(=O)N[C@@H](CCC(=O)O)C(=O)O)cc1 [METHOTREXATE] |  |  | 8.05 | 
Cc1c(NCc2ccc(C(=O)NC(CCC(=O)O)C(=O)O)cc2)ccc2nc(N)nc(O)c12 (stereo unspecified) |  |  | 5.40 | 
Nc1nc(O)c2c(Cl)c(NCc3ccc(C(=O)NC(CCC(=O)O)C(=O)O)cc3)ccc2n1 (stereo unspecified) | 5.17 | 4.42 | 5.07 | 4.96
Cc1c(CNc2ccc(C(=O)NC(CCC(=O)O)C(=O)O)cc2)ccc2nc(N)nc(N)c12 (stereo unspecified) | 8.52 | 8.30 | 8.47 | 8.30
Nc1nc(N)c2c(Cl)c(CNc3ccc(C(=O)NC(CCC(=O)O)C(=O)O)cc3)ccc2n1 (stereo unspecified) | 8.64 | 8.70 | 8.72 | 8.68

— ChEMBL document CHEMBL1123821, “Synthesis of 5-chloro-5,8-dideaza analogues of folic acid and aminopterin targeted for colon adenocarcinoma” (J Med Chem, 1987)
